The record followed here is ChEMBL document CHEMBL1201862, “PubChem BioAssay data set” (2004).

Molecules are shown by their SMILES.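 These data come from cells grown in 96-well plates and exposed to compound for 48 hours at five concentrations. GI50 = concentration required for 50% inhibition of growth.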 The source made the active and inactive calls. Cut-off read from the data, not from the text of the source: active = GI50 up to about 1.1 µM and inactive = higher.

Common to all, as to assay: DTP human tumour cell line panel, 48 h
Test [1] relates to ACHN.
Test [2] has as its system BT-549.
Test [3] concerns HCC 2998.
In test [4] the test system is HCT-116.
Test [5] deals with HOP-62.
Test [6] deals with K562.
The test system of test [7] is LOX IMVI.
Test [8] relates to MDA-MB-231.
Test [9] deals with MDA-MB-435.
Test [10] has as its system NCI-H460.
The subject of test [11] is OVCAR-3.
Test [12] relates to OVCAR-4.
Test [13] has as its system OVCAR-5.
Test [14] relates to RPMI-8226.
Test [15] concerns SF-268.
Test [16] relates to SF-295.
Test [17] has as its system SK-MEL-5.
Test [18] relates to SNB-19.
In test [19] the test system is T47D.
Test [20] has as its system UO-31.

Regarding `Nc1ccn(CC(O)c2cc3ccccc3[nH]2)c(=O)n1` (stereo not given), the GI50 in test [1], in test [2], in test [3], in test [4], in [5] and in test [6] was > 100 µM (inactive) each time. For the same compound, the GI50 in test [7], in test [8], in test [9], in [10], in [11] and in test [12] was > 100 µM (inactive) throughout. For the same compound, the GI50 in [13], in test [14], in [15], in test [16], in test [17] and in [18] was > 100 µM (inactive) each time. Moreover, the GI50 in test [19] and in test [20] was > 100 µM (inactive) in each case.
`CN(NC(=O)c1cccs1)C1=NCCCCN1`: the GI50 in test [1], in [2], in test [3], in [4], in test [5] and in test [6] was > 100 µM (inactive) each time. Moreover, the GI50 in test [7], in [8], in test [9], in test [10], in test [11] and in [12] was > 100 µM (inactive) in each case. In addition, the GI50 in test [13], in test [14], in test [15], in test [16], in [17] and in [18] was > 100 µM (inactive) each time. The GI50 in test [19] and in test [20] was > 100 µM (inactive) throughout.
On to `CN1CC[N+](C)=C1c1ccccc1`, for which the GI50 in [1], in [2], in test [3], in test [4], in test [5] and in test [6] was > 100 µM (inactive) in each case. In addition, the GI50 in [7], in test [8], in [9], in [10], in test [11] and in test [12] was > 100 µM (inactive) throughout. The GI50 in [13], in [14], in test [15], in test [16], in test [17] and in [18] was > 100 µM (inactive) throughout. For the same compound, the GI50 in test [19] and in test [20] was > 100 µM (inactive) each time.
As for `CCC1=NC(N/N=C/c2ccccc2O)=N/C1=C\c1ccccc1O`, the GI50 in [1] is 4.11 µM (inactive); in test [2], 12.1 µM (inactive); in [3], 10.2 µM (inactive); in [4], 7.59 µM (inactive); in [5], 8.55 µM (inactive); in test [6], 12.2 µM (inactive). In addition, the GI50 in test [7] is 5.61 µM (inactive); in [8], 36.3 µM (inactive); in test [9], 13.3 µM (inactive); in [10] it was 2.57 µM (inactive); in test [11], 2.89 µM (inactive); in test [12] it was 5.6 µM (inactive). Also, the GI50 in [13] was 26.7 µM (inactive); in test [14], 12.9 µM (inactive); in [15] it was 4.98 µM (inactive); in [16] it was 7.69 µM (inactive); in test [17], 19.5 µM (inactive); in test [18], 14.6 µM (inactive). Further, the GI50 in test [19] is 12.1 µM (inactive); in [20], 2.7 µM (inactive).
For the compound `C\C(=N/N=C1/C(=C\N(C)C)C(=O)NC(=O)N1C)c1ccc(Cl)cc1`, the GI50 in [1] is > 100 µM (inactive); in test [2], > 100 µM (inactive); in test [3] it was > 100 µM (inactive); in test [4], 74.1 µM (inactive); in [5], > 100 µM (inactive); in [6], > 100 µM (inactive). For the same compound, the GI50 is 58.2 µM (inactive) in test [7]; > 100 µM (inactive) in test [8]; 37.6 µM (inactive) in test [9]; > 100 µM (inactive) in test [10]; > 100 µM (inactive) in test [11]; > 100 µM (inactive) in test [12]. Moreover, the GI50 in test [13] was 69.2 µM (inactive); in test [14], 26.9 µM (inactive); in test [15], > 100 µM (inactive); in test [16], 54.6 µM (inactive); in [17], > 100 µM (inactive); in test [18] it was > 100 µM (inactive). Besides, the values for the GI50 in test [19] and in test [20] were 82.4 µM (inactive) and > 100 µM (inactive), respectively.
As to `COc1ccc(-c2cc(-c3ccccc3)nc(N)c2-c2ccc3ccccc3c2)cc1`, the GI50 is 2.05 µM (inactive) in test [1]; 1.64 µM (inactive) in test [2]; 1.83 µM (inactive) in [3]; 1.24 µM (inactive) in [4]; 2.3 µM (inactive) in test [5]; 2.94 µM (inactive) in test [6]. Further, the GI50 in test [7] was 1.72 µM (inactive); in [8], 1.6 µM (inactive); in test [9], 2.11 µM (inactive); in test [10], 1.52 µM (inactive); in test [11] it was 2.47 µM (inactive); in test [12], 0.979 µM (active). The GI50 in test [13] is 1.77 µM (inactive); in [14], 2.13 µM (inactive); in test [15] it was 3.3 µM (inactive); in test [16], 1.87 µM (inactive); in [17] it was 1.77 µM (inactive); in [18] it was 1.18 µM (inactive). The GI50 is 1.69 µM (inactive) in test [19] and 1.99 µM (inactive) in test [20].

A word on the GI50: it is the concentration that inhibits growth by half.
